Reference: US9867833B2, “Serine/threonine kinase inhibitors” (GENENTECH, INC., priority 2013, dated 2018)

Each compound was assayed against human ERK-2 (Mitogen Activated Kinase 1) (Homo sapiens (Human), UniProt P28482) (assay: ERK-2 Enzymatic Assay). Settings: human ERK-2 enzyme 5 nM, 25 μM ATP, S/T17 peptide substrate; isomer = configuration of CR2R3.
Assay type: biochemical
Method: Compounds were tested in an enzymatic assay using human ERK-2 (Mitogen Activated Kinase 1), recombinantly expressed as an n-terminal 6-His fusion protein in E. coli and corresponding to aa 8-360. […] Test compounds were diluted in DMSO in 3-fold serial dilutions at 100× final concentrations. […] The data collected from each well was fit to a straight line, and the resulting rates were used to calculate percent of control. Percent of control was plotted against compound concentration, and IC50 values were determined using a four-parameter fit.

human ERK-2 (Mitogen Activated Kinase 1), sequence (P28482 8-360): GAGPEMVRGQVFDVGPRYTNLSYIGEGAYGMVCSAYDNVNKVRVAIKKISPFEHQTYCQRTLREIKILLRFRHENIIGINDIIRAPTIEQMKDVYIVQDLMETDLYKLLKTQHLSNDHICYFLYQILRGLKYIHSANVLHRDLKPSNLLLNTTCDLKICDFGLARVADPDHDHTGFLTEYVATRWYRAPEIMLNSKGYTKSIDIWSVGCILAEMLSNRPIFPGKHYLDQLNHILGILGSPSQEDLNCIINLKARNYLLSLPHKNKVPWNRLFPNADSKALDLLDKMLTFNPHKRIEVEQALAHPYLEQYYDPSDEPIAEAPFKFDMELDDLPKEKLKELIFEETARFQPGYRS

Compound | IC50
Cn1nccc1Nc1nccc(-c2cc3n4c(nnc4c2)[C@H](Oc2cncc(F)c2)CCO3)n1 [(R) I-91, 4-(9-((5-fluoropyridin-3-yl)oxy)-8,9-dihydro-7H-6-oxa-1,2,2a^1-triazabenzo[cd]azulen-4-yl)-N-(1-methyl-1H-pyrazol-5-yl)pyrimidin-2-amine] | 25.8 nM
Cc1cc(C[C@H]2CCOc3cc(-c4ccnc(Nc5ccnn5C)n4)cc4nnc2n34)on1 [(R) I-93, N-(1-methyl-1H-pyrazol-5-yl)-4-(9-((3-methylisoxazol-5-yl)methyl)-8,9-dihydro-7H-6-oxa-1,2,2a^1-triazabenzo[cd]azulen-4-yl)pyrimidin-2-amine] | < 0.02 nM
COc1cccc(C[C@H]2COc3cc(-c4ccnc(Nc5ccnn5C)c4)cc4nnc2n34)c1 [(R) I-97, 4-(3-(3-methoxybenzyl)-3,4-dihydro-5-oxa-1,2,2a^1-triazaacenaphthylen-7-yl)-N-(1-methyl-1H-pyrazol-5-yl)pyridin-2-amine] | < 0.02 nM
Cn1nccc1Nc1nccc(-c2cc3n4c(nnc4c2)[C@H](CCC(F)(F)F)CCO3)n1 [(R) I-102, N-(1-methyl-1H-pyrazol-5-yl)-4-(9-(3,3,3-trifluoropropyl)-8,9-dihydro-7H-6-oxa-1,2,2a^1-triazabenzo[cd]azulen-4-yl)pyrimidin-2-amine] | 1.7 nM
CCC[C@@H]1CCOc2cc(-c3ccnc(Nc4ccnn4C)c3)cc3nnc1n23 [(R) I-103, N-(1-methyl-1H-pyrazol-5-yl)-4-(9-propyl-8,9-dihydro-7H-6-oxa-1,2,2a^1-triazabenzo[cd]azulen-4-yl)pyridin-2-amine] | 2.77 nM
CCC[C@@H]1CCOc2cc(-c3ccnc(Nc4ccnn4C)n3)cc3nnc1n23 [(R) I-104, N-(1-methyl-1H-pyrazol-5-yl)-4-(9-propyl-8,9-dihydro-7H-6-oxa-1,2,2a^1-triazabenzo[cd]azulen-4-yl)pyrimidin-2-amine] | 2.3 nM
CC(C)C[C@@H]1CCOc2cc(-c3ccnc(Nc4ccnn4C)n3)cc3nnc1n23 [(R) I-107, 4-(9-isobutyl-8,9-dihydro-7H-6-oxa-1,2,2a^1-triazabenzo[cd]azulen-4-yl)-N-(1-methyl-1H-pyrazol-5-yl)pyrimidin-2-amine] | 1.85 nM
Cn1nccc1Nc1nccc(-c2cc3n4c(nnc4c2)C(Oc2ccc(F)cc2)CCO3)n1 [(R) I-108, 4-(9-(4-fluorophenoxy)-8,9-dihydro-7H-6-oxa-1,2,2a^1-triazabenzo[cd]azulen-4-yl)-N-(1-methyl-1H-pyrazol-5-yl)pyrimidin-2-amine] | 2.95 nM
Cc1csc(C[C@H]2CCOc3cc(-c4ccnc(Nc5ccnn5C)n4)cc4nnc2n34)n1 [(R) I-109, N-(1-methyl-1H-pyrazol-5-yl)-4-(9-((4-methylthiazol-2-yl)methyl)-8,9-dihydro-7H-6-oxa-1,2,2a^1-triazabenzo[cd]azulen-4-yl)pyrimidin-2-amine] | < 0.02 nM
Clc1cnn(C[C@H]2CCOc3cc(-c4ccnc(NC5CCOCC5)n4)cc4nnc2n34)c1 [(R) I-110, 4-(9-((4-chloro-1H-pyrazol-1-yl)methyl)-8,9-dihydro-7H-6-oxa-1,2,2a^1-triazabenzo[cd]azulen-4-yl)-N-(tetrahydro-2H-pyran-4-yl)pyrimidin-2-amine] | < 0.02 nM
Cn1nccc1Nc1nccc(-c2cc3n4c(nnc4c2)[C@H](Oc2ccc(F)c(F)c2)CCO3)n1 [(R) I-111, 4-(9-(3,4-difluorophenoxy)-8,9-dihydro-7H-6-oxa-1,2,2a^1-triazabenzo[cd]azulen-4-yl)-N-(1-methyl-1H-pyrazol-5-yl)pyrimidin-2-amine] | 2.6 nM
Cn1nccc1Nc1nccc(-c2cc3n4c(nnc4c2)[C@@H](c2ccccc2)CN3)n1 [(S) I-1, N-(1-methyl-1H-pyrazol-5-yl)-4-(3-phenyl-4,5-dihydro-3H-1,2,2a^1,5-tetraazaacenaphthylen-7-yl)pyrimidin-2-amine] | 1.1 nM
Cn1nccc1Nc1nccc(-c2cc3n4c(nnc4c2)[C@@H](Cc2ccccc2)CN3)n1 [(S) I-2, (S)-4-(3-benzyl-4,5-dihydro-3H-1,2,2a^1,5-tetraazaacenaphthylen-7-yl)-N-(1-methyl-1H-pyrazol-5-yl)pyrimidin-2-amine] | 0.02 nM
Cn1nccc1Nc1nccc(-c2cc3n4c(nnc4c2)[C@@H](Cc2ccc(Cl)cc2)CN3)n1 [(S) I-5, 4-(3-(4-chlorobenzyl)-4,5-dihydro-3H-1,2,2a^1,5-tetraazaacenaphthylen-7-yl)-N-(1-methyl-1H-pyrazol-5-yl)pyrimidin-2-amine] | < 0.02 nM
Cn1nccc1Nc1cc(-c2cc3n4c(nnc4c2)[C@@H](Cc2ccccc2)CN3)ccn1 [(S) I-7, 4-(3-benzyl-4,5-dihydro-3H-1,2,2a^1,5-tetraazaacenaphthylen-7-yl)-N-(1-methyl-1H-pyrazol-5-yl)pyridin-2-amine] | < 0.02 nM
Cn1nccc1Nc1cc(-c2cc3n4c(ncc4c2)[C@@H](Cc2ccc(Cl)cc2)CN3)ccn1 [(S) I-8, 4-(3-(4-chlorobenzyl)-4,5-dihydro-3H-1,2,2a^1,5-tetraazaacenaphthylen-7-yl)-N-(1-methyl-1H-pyrazol-5-yl)pyridin-2-amine] | < 0.02 nM
CN1C[C@H](Cc2ccccc2)c2nnc3cc(-c4ccnc(Nc5ccnn5C)n4)cc1n23 [(S) I-9, 4-(3-benzyl-5-methyl-4,5-dihydro-3H-1,2,2a^1,5-tetraazaacenaphthylen-7-yl)-N-(1-methyl-1H-pyrazol-5-yl)pyrimidin-2-amine] | < 0.02 nM
CC(C)C[C@H]1CNc2cc(-c3ccnc(Nc4ccnn4C)n3)cc3nnc1n23 [(S) I-10, 4-(3-isobutyl-4,5-dihydro-3H-1,2,2a^1,5-tetraazaacenaphthylen-7-yl)-N-(1-methyl-1H-pyrazol-5-yl)pyrimidin-2-amine] | < 0.02 nM
COc1ccc(C[C@H]2CNc3cc(-c4ccnc(Nc5ccnn5C)n4)cc4nnc2n34)cc1 [(S) I-11, 4-(3-(4-methoxybenzyl)-4,5-dihydro-3H-1,2,2a^1,5-tetraazaacenaphthylen-7-yl)-N-(1-methyl-1H-pyrazol-5-yl)pyrimidin-2-amine] | < 0.02 nM
COc1ccc(C[C@H]2CNc3cc(-c4ccnc(Nc5ccnn5C)n4)cc4nnc2n34)cc1F [(S) I-12, 4-(3-(3-fluoro-4-methoxybenzyl)-4,5-dihydro-3H-1,2,2a^1,5-tetraazaacenaphthylen-7-yl)-N-(1-methyl-1H-pyrazol-5-yl)pyrimidin-2-amine] | < 0.02 nM
Cn1nccc1Nc1nccc(-c2cc3n4c(nnc4c2)[C@@H](Cc2ccc(Cl)c(F)c2)CN3)n1 [(S) I-14, 4-(3-(4-chloro-3-fluorobenzyl)-4,5-dihydro-3H-1,2,2a^1,5-tetraazaacenaphthylen-7-yl)-N-(1-methyl-1H-pyrazol-5-yl)pyrimidin-2-amine] | < 0.02 nM
Cn1nccc1Nc1nccc(-c2cc3n4c(nnc4c2)[C@H](Cc2ccccc2)CO3)n1 [(S) I-15, 4-(3-benzyl-3,4-dihydro-5-oxa-1,2,2a^1-triazaacenaphthylen-7-yl)-N-(1-methyl-1H-pyrazol-5-yl)pyrimidin-2-amine] | 2.24 nM
COc1ccc(C[C@H]2CN(C)c3cc(-c4ccnc(Nc5ccnn5C)c4)cc4nnc2n34)cc1 [(S) I-18, 4-(3-(4-methoxybenzyl)-5-methyl-4,5-dihydro-3H-1,2,2a^1,5-tetraazaacenaphthylen-7-yl)-N-(1-methyl-1H-pyrazol-5-yl)pyridin-2-amine] | 55.8 nM
